Laboratory results taken from paper PMC8213057, “Targeting ALK2: An Open Science Approach to Developing Therapeutics for the Treatment of Diffuse Intrinsic Pontine Glioma” (Journal of Medicinal Chemistry, 2020).

Assays:
[1] = biological target: CAMK2a (Homo sapiens, UniProt Q9UQM7); experiment: biochemical; conditions: read-out: % enzyme activity, 1 μM; Run 1, Run 2
[2] = biological target: CYP2B6
[3] = biological target: T1, GRK7 (Homo sapiens, UniProt Q8WTQ7); experiment: biochemical; conditions: read-out: % enzyme activity, 1 μM; Run 1, Run 2
T1 sequence (Q8WTQ7 1-553): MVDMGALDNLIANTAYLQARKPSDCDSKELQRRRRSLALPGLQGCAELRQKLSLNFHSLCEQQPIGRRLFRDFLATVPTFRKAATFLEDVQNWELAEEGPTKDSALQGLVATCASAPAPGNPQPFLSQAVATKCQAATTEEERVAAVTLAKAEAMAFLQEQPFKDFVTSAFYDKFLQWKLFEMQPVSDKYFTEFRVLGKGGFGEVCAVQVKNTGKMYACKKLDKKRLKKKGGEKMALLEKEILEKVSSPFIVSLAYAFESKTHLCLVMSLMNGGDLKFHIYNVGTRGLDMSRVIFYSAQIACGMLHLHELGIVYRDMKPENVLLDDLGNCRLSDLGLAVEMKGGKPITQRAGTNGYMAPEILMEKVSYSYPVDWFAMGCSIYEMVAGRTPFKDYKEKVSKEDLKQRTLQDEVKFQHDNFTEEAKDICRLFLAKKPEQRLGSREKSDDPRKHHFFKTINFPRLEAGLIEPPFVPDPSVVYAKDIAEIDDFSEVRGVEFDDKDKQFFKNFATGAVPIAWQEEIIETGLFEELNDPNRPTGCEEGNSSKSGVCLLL

[4] = biological target: p70S6K/RPS6KB1 (Homo sapiens, UniProt P23443); experiment: biochemical; conditions: read-out: % enzyme activity, 1 μM; Run 1, Run 2
Chain of p70S6K/RPS6KB1 (P23443 whole entry): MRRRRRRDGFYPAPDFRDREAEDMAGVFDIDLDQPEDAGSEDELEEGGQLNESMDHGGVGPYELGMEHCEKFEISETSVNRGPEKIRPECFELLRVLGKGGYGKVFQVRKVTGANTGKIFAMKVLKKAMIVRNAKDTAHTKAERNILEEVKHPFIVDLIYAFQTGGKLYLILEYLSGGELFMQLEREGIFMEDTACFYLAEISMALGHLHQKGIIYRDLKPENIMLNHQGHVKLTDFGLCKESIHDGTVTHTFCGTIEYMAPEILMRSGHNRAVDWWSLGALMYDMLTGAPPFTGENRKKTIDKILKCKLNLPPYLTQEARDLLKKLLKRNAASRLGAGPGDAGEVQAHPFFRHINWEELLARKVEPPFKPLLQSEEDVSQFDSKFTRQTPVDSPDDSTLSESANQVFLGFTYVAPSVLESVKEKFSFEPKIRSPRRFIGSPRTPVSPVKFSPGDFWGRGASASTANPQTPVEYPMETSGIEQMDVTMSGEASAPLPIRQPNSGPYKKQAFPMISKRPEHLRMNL

[5] = biological target: T2, DYRK2 (Homo sapiens, UniProt Q92630); conditions: 1 μM; Run 1, Run 2
T2 sequence (Q92630 1-601): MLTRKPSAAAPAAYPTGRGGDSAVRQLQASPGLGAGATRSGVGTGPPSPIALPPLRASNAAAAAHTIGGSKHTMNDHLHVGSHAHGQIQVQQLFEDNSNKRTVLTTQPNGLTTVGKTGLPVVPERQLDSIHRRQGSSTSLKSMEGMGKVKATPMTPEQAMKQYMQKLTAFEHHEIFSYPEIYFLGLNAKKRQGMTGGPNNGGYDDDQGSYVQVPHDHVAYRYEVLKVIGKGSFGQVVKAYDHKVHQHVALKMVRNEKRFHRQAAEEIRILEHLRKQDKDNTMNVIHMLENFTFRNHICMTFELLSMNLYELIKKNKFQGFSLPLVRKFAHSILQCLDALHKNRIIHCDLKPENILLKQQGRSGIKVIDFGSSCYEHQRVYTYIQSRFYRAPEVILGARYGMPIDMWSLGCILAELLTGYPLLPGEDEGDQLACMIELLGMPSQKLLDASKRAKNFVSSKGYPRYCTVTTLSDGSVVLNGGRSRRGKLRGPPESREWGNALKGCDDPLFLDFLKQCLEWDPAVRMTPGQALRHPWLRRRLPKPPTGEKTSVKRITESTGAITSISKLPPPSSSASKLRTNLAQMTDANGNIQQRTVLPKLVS

[6] = biological target: T3, PKMYT1 (Homo sapiens, UniProt Q99640); conditions: 1 μM; Run 1, Run 2
T3 sequence (Q99640 1-499): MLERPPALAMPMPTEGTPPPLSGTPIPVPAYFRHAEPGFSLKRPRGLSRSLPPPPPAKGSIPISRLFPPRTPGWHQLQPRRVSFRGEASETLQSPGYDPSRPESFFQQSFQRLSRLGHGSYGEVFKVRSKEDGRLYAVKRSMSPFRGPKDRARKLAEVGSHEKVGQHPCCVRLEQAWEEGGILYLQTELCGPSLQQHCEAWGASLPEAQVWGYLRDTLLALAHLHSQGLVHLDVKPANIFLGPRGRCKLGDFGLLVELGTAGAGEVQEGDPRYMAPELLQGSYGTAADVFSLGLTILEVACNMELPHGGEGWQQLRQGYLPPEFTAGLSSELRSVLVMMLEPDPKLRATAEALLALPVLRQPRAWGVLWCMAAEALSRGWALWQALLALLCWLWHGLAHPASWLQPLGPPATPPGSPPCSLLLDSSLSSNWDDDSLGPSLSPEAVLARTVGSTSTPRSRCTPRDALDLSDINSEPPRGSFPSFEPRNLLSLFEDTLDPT

[7] = biological target: LIMK1 (Homo sapiens, UniProt P53667); experiment: biochemical; conditions: read-out: % enzyme activity, 1 μM; Run 1, Run 2
Chain of LIMK1 (P53667 whole entry): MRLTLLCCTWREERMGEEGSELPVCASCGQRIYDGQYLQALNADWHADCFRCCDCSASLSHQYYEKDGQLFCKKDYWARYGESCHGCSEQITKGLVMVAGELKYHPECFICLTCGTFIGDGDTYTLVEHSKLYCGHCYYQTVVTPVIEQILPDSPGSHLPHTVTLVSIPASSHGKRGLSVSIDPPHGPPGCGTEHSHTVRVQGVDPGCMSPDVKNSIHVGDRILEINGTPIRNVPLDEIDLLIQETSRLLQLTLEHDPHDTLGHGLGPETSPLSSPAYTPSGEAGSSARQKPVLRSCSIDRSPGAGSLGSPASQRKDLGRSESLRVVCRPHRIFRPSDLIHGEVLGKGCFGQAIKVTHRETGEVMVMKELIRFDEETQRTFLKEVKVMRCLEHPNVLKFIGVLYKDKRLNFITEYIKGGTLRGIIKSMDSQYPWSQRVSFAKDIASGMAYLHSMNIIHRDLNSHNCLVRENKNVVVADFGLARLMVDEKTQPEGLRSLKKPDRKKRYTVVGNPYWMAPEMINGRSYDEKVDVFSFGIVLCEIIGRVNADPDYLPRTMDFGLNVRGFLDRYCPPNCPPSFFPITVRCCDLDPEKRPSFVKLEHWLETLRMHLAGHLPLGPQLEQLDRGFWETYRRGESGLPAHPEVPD

[8] = biological target: MSSK1/STK23 (Homo sapiens, UniProt Q9UPE1); experiment: biochemical; conditions: read-out: % enzyme activity, 1 μM; Run 1, Run 2
Chain of MSSK1/STK23 (Q9UPE1 whole entry): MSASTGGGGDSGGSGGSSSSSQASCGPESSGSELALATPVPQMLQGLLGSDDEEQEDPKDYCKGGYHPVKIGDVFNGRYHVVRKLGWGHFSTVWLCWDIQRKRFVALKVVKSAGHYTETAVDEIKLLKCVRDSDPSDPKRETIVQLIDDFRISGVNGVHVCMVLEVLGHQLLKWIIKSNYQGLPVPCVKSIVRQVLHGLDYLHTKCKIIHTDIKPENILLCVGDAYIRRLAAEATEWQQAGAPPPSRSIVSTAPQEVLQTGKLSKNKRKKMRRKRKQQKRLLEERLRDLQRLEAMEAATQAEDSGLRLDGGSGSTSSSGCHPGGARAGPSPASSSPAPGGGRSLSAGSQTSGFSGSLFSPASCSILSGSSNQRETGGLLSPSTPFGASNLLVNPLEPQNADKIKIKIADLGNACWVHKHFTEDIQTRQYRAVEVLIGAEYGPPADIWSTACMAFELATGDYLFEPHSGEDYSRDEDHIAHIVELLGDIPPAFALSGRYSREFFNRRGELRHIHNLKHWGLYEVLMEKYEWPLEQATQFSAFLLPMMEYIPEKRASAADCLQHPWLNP

[9] = biological target: T4, EPHA1 (Homo sapiens, UniProt P21709); experiment: biochemical; conditions: read-out: % enzyme activity, 1 μM; Run 1, Run 2
T4 sequence (P21709 26-976): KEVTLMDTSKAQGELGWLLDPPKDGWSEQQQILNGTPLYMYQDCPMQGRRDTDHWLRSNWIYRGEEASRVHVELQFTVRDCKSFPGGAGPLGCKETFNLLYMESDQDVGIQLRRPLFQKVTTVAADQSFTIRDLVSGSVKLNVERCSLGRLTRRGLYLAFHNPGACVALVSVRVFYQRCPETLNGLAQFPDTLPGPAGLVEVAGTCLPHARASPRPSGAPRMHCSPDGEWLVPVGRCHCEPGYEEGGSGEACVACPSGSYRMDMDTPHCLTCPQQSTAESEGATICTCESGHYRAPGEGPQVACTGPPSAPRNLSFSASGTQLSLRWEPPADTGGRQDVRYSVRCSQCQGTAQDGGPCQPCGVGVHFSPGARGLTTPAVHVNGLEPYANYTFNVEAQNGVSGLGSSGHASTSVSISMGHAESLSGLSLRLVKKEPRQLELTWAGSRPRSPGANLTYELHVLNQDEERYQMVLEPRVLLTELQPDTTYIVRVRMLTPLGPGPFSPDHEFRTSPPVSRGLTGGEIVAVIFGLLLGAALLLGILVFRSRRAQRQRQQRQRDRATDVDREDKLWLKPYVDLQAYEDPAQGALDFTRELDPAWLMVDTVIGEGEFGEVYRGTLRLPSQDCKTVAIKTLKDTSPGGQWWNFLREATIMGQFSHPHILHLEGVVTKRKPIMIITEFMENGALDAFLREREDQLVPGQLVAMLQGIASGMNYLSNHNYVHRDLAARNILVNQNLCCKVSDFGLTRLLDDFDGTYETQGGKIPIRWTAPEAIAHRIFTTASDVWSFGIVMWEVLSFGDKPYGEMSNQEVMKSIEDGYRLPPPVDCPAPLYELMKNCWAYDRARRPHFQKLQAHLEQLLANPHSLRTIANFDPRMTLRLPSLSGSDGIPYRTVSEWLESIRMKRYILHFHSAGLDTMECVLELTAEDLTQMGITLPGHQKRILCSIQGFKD

Chain of CAMK2a (Q9UQM7 whole entry): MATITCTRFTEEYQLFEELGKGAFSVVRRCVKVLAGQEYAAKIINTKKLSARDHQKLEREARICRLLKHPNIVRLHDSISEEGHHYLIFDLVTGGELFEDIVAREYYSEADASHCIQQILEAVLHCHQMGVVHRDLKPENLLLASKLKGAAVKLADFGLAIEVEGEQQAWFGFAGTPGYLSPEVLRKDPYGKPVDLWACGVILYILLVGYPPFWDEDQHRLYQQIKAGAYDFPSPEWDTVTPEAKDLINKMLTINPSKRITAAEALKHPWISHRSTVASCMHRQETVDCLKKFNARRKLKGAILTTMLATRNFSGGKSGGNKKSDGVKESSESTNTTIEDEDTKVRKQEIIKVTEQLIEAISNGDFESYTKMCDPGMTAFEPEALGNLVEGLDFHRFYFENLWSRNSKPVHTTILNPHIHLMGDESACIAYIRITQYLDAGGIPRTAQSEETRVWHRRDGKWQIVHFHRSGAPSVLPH

Structure (SMILES) | remaining activity at 1 µM [1] | CYP inhibition [2] | remaining activity at 1 µM [3] | remaining activity at 1 µM [4] | % enzyme activity [5] | % enzyme activity [6] | remaining activity at 1 µM [7] | remaining activity at 1 µM [8] | remaining activity at 1 µM [9]
COc1cc(-c2cncc(-c3ccc(N4C[C@@H](C)N(C)[C@@H](C)C4)cc3)c2C)cc(F)c1C(N)=O [Compound 26c, 2-Fluoro-6-methoxy-4-(4-methyl-5-(4-((3R,5S)-3,4,5-trimethylpiperazin-1-yl)phenyl)pyridin-3-yl)benzamide] | 96.7% | > 50 µM | 91.8% | 100% | 98.44% | 92.38% | 74.2% | 99.8% | 93.3%
COc1cc(-c2cncc(-c3ccc(N4CCN(C)CC4)cc3)c2C)cc(F)c1C(N)=O [Compound 26a, 2-Fluoro-6-methoxy-4-(4-methyl-5-(4-(4-methylpiperazin-1-yl)phenyl)pyridin-3-yl)benzamide] | 85.5% | > 50 µM | 95.1% | 97.8% | 95.06% | 100.09% | 65.1% | 99.3% | 97.5%
